Results on 20 compounds are retold here after PMC12250713, “Identification and Characterization of Novel Inhibitors of Human Poly(ADP-Ribose) Polymerase-1” (Molecules, 2025).

Where “and” joins values, the source holds several entries; their conditions need not be identical. Equal values may be shown once. Entries after “also recorded” stand apart in the source; their conditions may differ.

The target of one data set is T1, hPARP-1 (Homo sapiens, UniProt P09874).
T1 construct: purchased Bio-Techne (Minneapolis, MN, USA)
T1 sequence (P09874 whole entry): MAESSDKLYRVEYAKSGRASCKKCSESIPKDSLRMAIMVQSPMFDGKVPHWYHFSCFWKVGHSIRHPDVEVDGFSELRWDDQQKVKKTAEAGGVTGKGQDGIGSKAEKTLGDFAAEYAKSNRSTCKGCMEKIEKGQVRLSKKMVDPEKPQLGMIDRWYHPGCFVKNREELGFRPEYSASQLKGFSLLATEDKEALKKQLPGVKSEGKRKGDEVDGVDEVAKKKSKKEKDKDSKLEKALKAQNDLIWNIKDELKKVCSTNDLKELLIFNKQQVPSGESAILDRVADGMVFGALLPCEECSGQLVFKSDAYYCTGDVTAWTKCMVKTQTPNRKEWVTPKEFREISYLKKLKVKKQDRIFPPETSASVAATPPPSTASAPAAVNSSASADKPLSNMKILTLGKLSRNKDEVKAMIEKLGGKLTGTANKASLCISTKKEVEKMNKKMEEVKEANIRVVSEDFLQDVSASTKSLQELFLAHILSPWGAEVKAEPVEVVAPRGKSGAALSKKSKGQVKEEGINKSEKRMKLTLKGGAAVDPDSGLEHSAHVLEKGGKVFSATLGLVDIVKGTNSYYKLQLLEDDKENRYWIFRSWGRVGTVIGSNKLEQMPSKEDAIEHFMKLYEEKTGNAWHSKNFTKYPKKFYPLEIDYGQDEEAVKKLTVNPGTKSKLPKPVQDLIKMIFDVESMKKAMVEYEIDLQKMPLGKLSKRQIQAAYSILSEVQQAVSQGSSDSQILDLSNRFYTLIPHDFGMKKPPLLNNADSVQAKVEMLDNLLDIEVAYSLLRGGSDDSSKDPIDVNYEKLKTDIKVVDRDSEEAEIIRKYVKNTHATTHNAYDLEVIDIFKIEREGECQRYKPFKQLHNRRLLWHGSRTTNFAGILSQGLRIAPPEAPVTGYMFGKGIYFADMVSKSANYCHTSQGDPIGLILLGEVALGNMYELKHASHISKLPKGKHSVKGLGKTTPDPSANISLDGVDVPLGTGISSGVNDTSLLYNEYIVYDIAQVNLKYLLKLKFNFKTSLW
The data set can be described thus: hPARP-1 enzyme assay (NAD+ cycling reaction, resorufin fluorescence read-out). Type of data set: biochemical. The note with it: for IC50: 0.1-50 µM, mean ± SD, two biological replicates; for inhibition at 10 µM: concentration of 10 µM; for reduction in the PARPi activity compared with compound 57: modification at the thiomethyl group; for decline in PARPi activity compared with compound 54: replacement of the fluoride group; for PARPi activity at the enzyme level compared to the OLP core structure phthalazin-1(2H)-one: own IC50 vs literature IC50 12 µM. On the procedure: The putative PARP inhibitors, which were pre-selected in the in silico study, were subsequently evaluated by using an optimized biochemical hPARP-1 enzyme assay. The experiment was performed in black half-area 96-well plates. For the PARP reaction, 12.5 µL of PARP reaction solution were added. The solution was composed of 0.5 µg deoxyribonucleic acid (DNA) sodium salt from calf thymus, 2 U of recombinant hPARP-1, and 1 µL of the compound of interest in PARP reaction buffer (50 mM TRIS and 2 mM MgCl2 in ddH2O, pH = 8). These test compounds’ working solutions were prepared from 20 mM DMSO stock solutions and diluted using PARP reaction buffer to reach 25× of the required final concentration to be tested. […] Afterwards, 12.5 µL of NAD^+ solution were added to all wells to reach a final NAD^+ concentration of 50 nM, and to start the enzyme reaction.
Besides PARP reaction wells, NAD^+ calibration wells were included to measure the linearity of the detection of NAD^+ concentrations. In each well, 12.5 µL of NAD^+ calibration solution were added. The solution was composed of 0.5 µg deoxyribonucleic acid (DNA) sodium salt from calf thymus in PARP reaction buffer. Finally, 12.5 µL of decreasing concentrations of NAD^+ solution were added to the calibration wells (final concentrations: 50, 40, 30, 20, 10, 0 nM).
Subsequently, the assay plate including both the PARP reaction and NAD^+ calibration wells was gently shaken and incubated at 25 °C in the dark for 90 min. After incubation, 25 µL of detection solution were added to each well. […] The assay plate was again gently shaken and incubated at 25 °C in the dark for 40 min.
Following the aforementioned protocol, the compounds that were predicted by the in silico study as putative hPARP-1 inhibitors were tested at two different concentrations (1 and 10 µM). […] The IC50s were calculated by using GraphPad Prism software and a non-linear four-parametric regression function.

In another data set the test system is MDA-MB-468 cells. As to the kind of experiment: cells. Format: cell-based. Conditions: for cytotoxic activity as a monotherapy against MDA-MB-468: CV assay. On the procedure:
(§1) Cells were seeded in 96-well cell culture plates and were allowed to adhere for 24 h in a humidified atmosphere with 5% CO2 at 37 °C. Afterward, cells were treated with the test items at several concentrations for 72 h. […] After finalization of the intended 72 h treatment, the treatment solutions were discarded, and the cells were washed once with PBS. Subsequently, the cells were fixed by incubation in 4% (v/v) paraformaldehyde in PBS for 15 min at room temperature (RT). The fixing solution was discarded, and the cells were allowed to dry at RT for 15 min. The cells were stained with 0.1% (w/v) crystal violet in PBS for 15 min at RT, then washed with ddH2O and dried overnight at RT. […] The obtained absorbance data were normalized based on the negative and positive controls representing 100% and 0% cell viability, respectively. IC50 values were calculated by using a four-parametric non-linear regression analysis in GraphPad Prism software.
(§2) Finally, cell viability was determined by using the CV assay, and IC50 values were calculated as mentioned above.

Another data set addresses T2, hPARP-1 in BT-474 cells (Homo sapiens, UniProt P09874).
T2 construct: endogenous in cells; host or cells: BT-474
As to the kind of experiment: fluorescence microscopy, competitive displacement of PARPi-FL. Type of data set: cell-based. The note with it: BT-474, 72 h with 100 µM compound 57 or 1.56 µM OLP, then 250 nM PARPi-FL 20 min. On the procedure: For the determination of the interaction of the proposed PARPi and the PARP binding pocket inside the treated cells, a fluorescence microscopic inspection was performed. Using a green fluorescently labeled molecule named PARPi-FL that is characterized by the ability to occupy specifically the binding pocket of the PARP enzyme. Moreover, in case of its competitive replacement by PARPi molecules a reduction in its fluorescent signal is detectable. Thus, cells were seeded in 6-well plates and incubated in a humidified atmosphere with 5% CO2 for 24 h at 37 °C. […] Subsequently, the treatment solutions were discarded, and the cells were washed with PBS. […] Finally, cells were imaged by using the GFP channel of an EVOS™ FL Auto Imaging System (Thermo Fisher Scientific, Waltham, MA, USA).

Another data set concerns BT-474 cells. As to the kind of experiment: crystal violet (CV) cell viability assay, single and combined with TMZ. Type of data set: cell-based. On the procedure:
as §1, §2

In the next data set the test system is MCF-7 cells. The description is as above. Conditions: Homo sapiens, MCF7, 72 h; read-out: IC50 of TMZ, alone or combined. Type of data set: cell-based. On the procedure:
as §1, §2

For the next data set, the system named is 184B5 cells. The description is as above. Format: cell-based. Conditions: Homo sapiens, 184B5, 72 h; read-out: IC50 of TMZ, alone or combined. On the procedure:
as §1, §2

Another data set relates to HCC1937 cells. The data set is described as above. Conditions: Homo sapiens, HCC1937, 72 h; read-out: IC50 of TMZ, alone or combined. Format: cell-based. On the procedure:
as §1, §2

T2 sequence (P09874 whole entry): as above

What is called IC50 is the point on the concentration scale where inhibition reaches its midpoint. One may read the inhibition as the relative decrease from the control value, in per cent. In the case of `COc1cccc(Nc2nc3ccccc3c(=O)[nH]2)c1` [Compound 18], on hPARP-1, the IC50 amounted to 23.5 ± 8.74 µM and the inhibition at 10 µM is more than 50%.
For `O=C(c1cc(Cc2n[nH]c(=O)c3ccccc23)ccc1F)N1CCN(C(=O)C2CC2)CC1` [OLP, olaparib], in the data set with MDA-MB-468 cells (72 h), the “cytotoxic activity as a monotherapy against MDA-MB-468” value was “good and selective cytotoxic activity”. The “IC10 (CV cytotoxicity assay)” value in the data set with MDA-MB-468 cells (MDA-MB-468 cells, 72 h) was determined as 1.56 µM.
`C=CCSc1nc2ccccc2c(=O)[nH]1` [Compound 67]: on hPARP-1, the IC50 was more than 10 µM and the “reduction in the PARPi activity compared with compound 57” value (from here on “reduction in the PARPi activity”) is reported as “at least four-fold”.
As to `COc1ccc(NCc2nnc(O)c3ccccc23)cc1` [Compound 45], on hPARP-1, the IC50 came out at 3.01 ± 1.19 µM and the inhibition at 10 µM is more than 50%.
In the case of `COc1ccc(C(=O)Nc2nc3c(c(=O)[nH]2)CCCC3)cc1` [Compound 21], at hPARP-1, the IC50 is 14.9 ± 4.92 µM, the inhibition at 10 µM was more than 50% and the “decline in PARPi activity compared with compound 54” value (“decline … compared with compound 54” below) is reported as “at least three-fold”.
Regarding `O=c1[nH]c(SCCC(F)=C(F)F)nc2ccccc12` [Compound 69], on hPARP-1, the IC50 was more than 10 µM and the “reduction in the PARPi activity” value is recorded as “at least four-fold”.
With `O=C(Nc1nc2c(c(=O)[nH]1)CCCC2)c1ccc(Cl)cc1` [Compound 32], at hPARP-1, the “decline … compared with compound 54” value is reported as “at least three-fold”.
Take `O=c1[nH]nc(-c2ccccc2)c2ccccc12` [Compound 56]: on hPARP-1, the IC50 stood at 6.61 ± 2.09 µM and the inhibition at 10 µM was more than 50%.
Turning to `CSc1nc2ccccc2c(=O)[nH]1` [Compound 57, 2-(methylthio)quinazolin-4(3H)-one], the “displacement of PARPi-FL from nuclear hPARP-1 (fluorescence)” value at hPARP-1 in BT-474 cells is on record as “failed to reach the nuclei of BT-474 cells; also recorded: did not impact the fluorescent appearance of the stain”. Further, in the data set on BT-474 cells (BT-474 cells, 72 h), the “IC10 (CV cytotoxicity assay)” value came to 100 µM. Also, at hPARP-1, the IC50 was 2.3 µM and 2.32 µM; the inhibition at 10 µM is more than 50%; the “PARPi activity at the enzyme level compared to the OLP core structure phthalazin-1(2H)-one” value is listed as “five-fold higher”. In addition, the “fold higher hPARP-1-inhibiting activity compared to core structure quinazolin-4(3H)-one” value on hPARP-1 (own IC50 vs literature IC50 5.8 µM) is recorded as 2.5 fold. Moreover, the “cytotoxic activity as a monotherapy against MDA-MB-468” value with MDA-MB-468 cells (72 h) is listed as “such an effect was not observed”. In addition, the “synergistic improvement of the TMZ activity by co-treatment” value in the data set on MDA-MB-468 cells (co-treatment at IC10 (100 µM compound 57), 72 h) is on record as “did not induce a synergistic improvement”.
Regarding `O=C(Nc1nc2c(c(=O)[nH]1)CCCC2)c1ccc(F)cc1` [Compound 54], on hPARP-1, the IC50 turned out to be 4.56 µM, the inhibition at 10 µM was more than 50% and the “PARPi activity at the enzyme level compared to the OLP core structure phthalazin-1(2H)-one” value was “two-fold higher”.
For `CSc1nc2ccc([N+](=O)[O-])cc2c(=O)[nH]1` [Compound 65], at hPARP-1, the “hPARP-1 inhibitor activity compared with compound 57 (SAR, in words)” value is listed as “dramatic decrease in activity” and the IC50 is more than 10 µM.
With `Cc1ccc(C(=O)Nc2nc3c(c(=O)[nH]2)CCCC3)cc1` [Compound 34], the “decline … compared with compound 54” value on hPARP-1 is given as “at least three-fold”.
As to `Cn1nnc2c(C(N)=O)ncn2c1=O` [TMZ, temozolomide], the IC50 with MCF-7 cells was 3440 ± 1720 µM; with BT-474 cells (Homo sapiens, BT-474, 72 h, read-out: IC50 of TMZ, alone or combined), 2210 ± 10 µM; in the data set with 184B5 cells it was 980 ± 820 µM; in the data set with HCC1937 cells, 3740 ± 1500 µM; in the data set with MDA-MB-468 cells (Homo sapiens, MDA-MB-468, 72 h, read-out: IC50 of TMZ, alone or combined), 2060 ± 790 µM.
Consider `CSc1nc2ccccc2c(=O)n1C` [Compound 62], for which, on hPARP-1, the “hPARP-1 inhibitor activity compared with compound 57 (SAR, in words)” value is listed as “complete abolishment of hPARP-1 inhibitor activity” and the IC50 was more than 10 µM.
Take `COc1cc2nc(SC)[nH]c(=O)c2cc1OC` [Compound 64]: at hPARP-1, the “hPARP-1 inhibitor activity compared with compound 57 (SAR, in words)” value is on record as “dramatic decrease in activity” and the IC50 is more than 10 µM.
With `O=c1[nH]nc(CNc2ccc([N+](=O)[O-])cc2)c2ccccc12` [Compound 22], on hPARP-1, the IC50 was 4.57 ± 4.89 µM and the inhibition at 10 µM is more than 50%.
For `N#CCc1n[nH]c(=O)c2ccccc12` [Compound 58], at hPARP-1, the IC50 stood at 4.86 ± 0.63 µM and the inhibition at 10 µM was more than 50%.
For `CSc1nc2cc([N+](=O)[O-])ccc2c(=O)[nH]1` [Compound 66], on hPARP-1, the “hPARP-1 inhibitor activity compared with compound 57 (SAR, in words)” value was “dramatic decrease in activity” and the IC50 is more than 10 µM.
The like results for `CSc1nc2ccccc2c(=O)n1Cc1ccccc1` [Compound 63] were, in that order, “complete abolishment of hPARP-1 inhibitor activity” and more than 10 µM.
Turning to `C#CCSc1nc2ccccc2c(=O)[nH]1` [Compound 68], on hPARP-1, the IC50 is more than 10 µM and the “reduction in the PARPi activity” value is “at least four-fold”.
